Source: patent US9796705B2, “Fused tricyclic compounds and methods of use thereof for the treatment of viral diseases” (Merck Sharp & Dohme Corp., priority 2009, dated 2017)

Test system: HCV replicon
Assay: Cell-Based HCV Replicon Assay
Conditions: Hepatitis C virus, 72 h; replicon cells, replicon RNA level by real time PCR (Taqman) on day 3; EC90 = concentration to achieve ΔCT=3.2 over baseline; read-out: Biological activity (EC90, HCV replicon assay)
Procedure: To measure cell-based anti-HCV activity of selected compounds of the present invention, replicon cells were seeded at 5000 cells/well in 96-well collagen I-coated Nunc plates in the presence of the test compound. Various concentrations of test compound, typically in 10 serial 2-fold dilutions, were added to the assay mixture, with the starting concentration ranging from 250 µM to 1 μM. The final concentration of DMSO was 0.5%, fetal bovine serum was 5%, in the assay media. Cells were harvested on day 3 by the addition of 1× cell lysis buffer (Ambion cat #8721). The replicon RNA level was measured using real time PCR (Taqman assay). The amplicon was located in 5B. The PCR primers were: 5B.2F, ATGGACAGGCGCCCTGA (SEQ. ID NO. 1); 5B.2R, […] (SEQ. ID NO. 2); the probe sequence was FAM-labeled CACGCCATGCGCTGCGG (SEQ. ID NO. 3). GAPDH RNA was used as endogenous control and was amplified in the same reaction as NS5B (multiplex PCR) using primers and VIC-labeled probe recommended by the manufacturer (PE Applied Biosystem). The real-time RT-PCR reactions were run on ABI PRISM 7900HT Sequence Detection System using the following program: 48° C. for 30 min, 95° C. for 10 min, 40 cycles of 95° C. for 15 sec, 60° C. for 1 min. The ΔCT values (CT-CT5BCTGAPDH) were plotted against the concentration of test compound and fitted to the sigmoid dose-response model using XLfit4 (MDL). EC50 was defined as the concentration of inhibitor necessary to achieve ΔCT=1 over the projected baseline; EC90 the concentration necessary to achieve ΔCT=3.2 over the baseline. Alternatively, to quantitate the absolute amount of replicon RNA, a standard curve was established by including serially diluted T7 transcripts of replicon RNA in the Taqman assay. All Taqman reagents were from PE Applied Biosystems. Such an assay procedure was described in detail in e.g. Malcolm et at, Antimicrobial Agents and Chemotherapy 50: 1013-1020 (2006).
HCV replicon assay data was calculated for selected compounds of the present invention using this method and is provided in the table below.

First: CC(=O)N1CCC[C@H]1c1nc2ccc(-c3ccc4c(ccc5nc([C@@H]6CCCN6C(=O)OC(C)(C)C)[nH]c54)c3)cc2[nH]1 [Compound 4]
Second: CC(C)(C)OC(=O)N1CCCC[C@H]1c1nc2ccc(-c3ccc4c(ccc5nc([C@@H]6CCCN6C(=O)OC(C)(C)C)[nH]c54)c3)cc2[nH]1 [Compound 8]
The EC90 of the first is higher: no less than 1000 nM for the first, 1 to 999 nM for the second.

COC(=O)N[C@H](C(=O)N1CCC[C@H]1c1nc2cc(F)c(-c3ccc4c(ccc5nc([C@@H]6CCCN6C(=O)[C@@H](NC(=O)OC)C(C)C)[nH]c54)c3)cc2[nH]1)C(C)C [Compound 7] and COC(=O)N[C@H](C(=O)N1CCC[C@H]1c1nc2ccc(-c3ccc4c(ccc5nc([C@@H]6CCCN6C(=O)[C@@H](NC(=O)OC)C(C)C)[nH]c54)c3)cc2[nH]1)C(C)C [Compound 3] cannot be ordered by EC90: less than 1 nM for the first, less than 1 nM for the second.

COC(=O)N[C@H](C(=O)N1CCC[C@H]1c1nc2ccc(-c3ccc4c(ccc5nc([C@@H]6CCCN6)[nH]c54)c3)cc2[nH]1)C(C)C [Compound 17] and COC(=O)N[C@H](C(=O)N1CCCC[C@H]1c1nc2ccc(-c3ccc4c(ccc5nc([C@@H]6CCCN6)[nH]c54)c3)cc2[nH]1)C(C)C [Compound 10] fall in the same range of EC90: 1 to 999 nM for the first, 1 to 999 nM for the second.

COC(=O)N[C@H](C(=O)N1CCC[C@H]1c1nc2ccc3cc(-c4ccc5nc([C@@H]6CCCN6C(C)=O)[nH]c5c4)ccc3c2[nH]1)C(C)C [Compound 5] and COC(=O)N[C@H](C(=O)N1CCCC[C@H]1c1nc2ccc(-c3ccc4c(ccc5nc([C@@H]6CCCN6C(=O)[C@@H](NC(=O)OC)C(C)C)[nH]c54)c3)cc2[nH]1)C(C)C [Compound 11] cannot be ordered by EC90: less than 1 nM for the first, less than 1 nM for the second.

CC(=O)N1CCC[C@H]1c1nc2ccc(-c3ccc4c(ccc5nc([C@@H]6CCCN6)[nH]c54)c3)cc2[nH]1 [Compound 6] and CC(C)(C)OC(=O)N1CC(F)(F)C[C@H]1c1nc2ccc(-c3ccc4c(ccc5nc([C@@H]6CCCN6C(=O)OC(C)(C)C)[nH]c54)c3)cc2[nH]1 [Compound 9] fall in the same range of EC90: 1 to 999 nM for the first, 1 to 999 nM for the second.

First: Cc1cc(-c2cnc([C@@H]3CCCN3C(=O)OC(C)(C)C)[nH]2)sc1-c1ccc2c(ccc3nc([C@@H]4CCCN4C(=O)OC(C)(C)C)[nH]c32)c1 [Compound 15]
Second: COC(=O)N[C@H](C(=O)N1CCC[C@H]1c1ncc(-c2cc(C)c(-c3ccc4c(ccc5nc([C@@H]6CCCN6C(=O)[C@@H](NC(=O)OC)C(C)C)[nH]c54)c3)s2)[nH]1)C(C)C [Compound 2]
The EC90 of the first is higher: 1 to 999 nM for the first, less than 1 nM for the second.

COC(=O)N[C@H](C(=O)N1CCC[C@H]1c1nc2ccc(-c3sc4ccc(-c5ccc6c(ccc7nc([C@@H]8CCCN8C(=O)[C@@H](NC(=O)OC)C(C)C)[nH]c76)c5)cc4c3C)cc2[nH]1)C(C)C [Compound 16] and COC(=O)N[C@H](C(=O)N1CC(F)(F)C[C@H]1c1nc2ccc(-c3ccc4c(ccc5nc([C@@H]6CCCN6C(=O)[C@@H](NC(=O)OC)C(C)C)[nH]c54)c3)cc2[nH]1)C(C)C [Compound 12] cannot be ordered by EC90: less than 1 nM for the first, less than 1 nM for the second.

Compared with CC(C)[C@H](NC(=O)OC(C)(C)C)C(=O)N1CC(F)(F)C[C@H]1c1nc2ccc(-c3ccc4c(ccc5nc([C@@H]6CCCN6C(=O)[C@@H](NC(=O)OC(C)(C)C)C(C)C)[nH]c54)c3)cc2[nH]1 [Compound 13], CC(C)[C@H](N)C(=O)N1CC(F)(F)C[C@H]1c1nc2ccc(-c3ccc4c(ccc5nc([C@@H]6CCCN6C(=O)[C@@H](N)C(C)C)[nH]c54)c3)cc2[nH]1 [Compound 14] is higher in EC90: less than 1 nM for the first, 1 to 999 nM for the second.

COC(=O)N[C@H](C(=O)N1CCC[C@H]1c1ncc(-c2ccc(-c3ccc4c(ccc5nc([C@@H]6CCCN6C(=O)[C@@H](NC(=O)OC)C(C)C)[nH]c54)c3)s2)[nH]1)C(C)C [Compound 1] showed an EC90 of less than 1 nM.
